Laboratory results: patent US9511058B2, “Methods for using carboxamide, sulfonamide and amine compounds” (Rigel Pharmaceuticals, Inc., priority 2010, dated 2016)

Molecular target: AMPK
Assay: AMPK activation, enzyme-linked immunosorbent assay
Type: biochemical
Conditions: compounds of Table 5 (Table 10)

Row | EC50 [µM] | SMILES
1 | 10 to 20 | Cc1ccc(CN2CCC(Oc3ccc(C(=O)NCCCN4CCOCC4)cc3)CC2)cc1 [5-104, 4-(1-(4-methylbenzyl)piperidin-4-yloxy)-N-(3-morpholinopropyl)benzamide]
2 | 10 to 20 | O=C(c1ccc(OC2CCN(Cc3ccccc3)CC2)cc1)N1CCN(Cc2ccccn2)CC1 [5-105, (4-(1-benzylpiperidin-4-yloxy)phenyl)(4-(pyridin-2-ylmethyl)piperazin-1-yl)methanone]
